Where two headings read alike, the source gives them in different places. Each block holds one molecule with its values, some of them ahead of it.
How the values were obtained:
yeast and mould = assay: Outgrowth of yeast and mould in or on food products; type: cell-based
most food born fungi = conditions: cited from earlier work
[1] = type: physicochemical
Procedure: Cottage cheese was prepared following the standard procedure for cottage cheese making. The dry curd was obtained by addition of a starter culture to pasteurized skim milk. After acidification till pH 4.4 the curd was pasteurized and rinsed with water. The dry curd was mixed with the dressing at the ratio 66% curd and […]. Before mixing the curd and the dressing, the preservatives Delvocid® and Delvoplus® were added to the dressing. The preservative concentrations in the end products were 2.5 and 5 ppm of natamycin (5 and 10 ppm of Delvocid®) and 1.25 and 2.5 ppm of nisin (50 and 100 ppm of Delvoplus®). The moisture content of cottage cheese (dry curd mixed with the dressing) was 82%.
The procedure described in the International IDF (International Dairy Federation) Standard 140A:1992 for cheese was used to determine the concentration of natamycin in the cottage cheese samples. In total 12 different samples were analysed in triplicate. The remaining percentage of natamycin was calculated using the average of the triplicate. […] After 6 weeks of storage at refrigerated temperature, the average stability of natamycin in cottage cheese was of 92%.

[2] = system: Kluyveromyces marxianus CBS 1557; assay: Antifungal activity in inoculated cottage cheese, viable cell enumeration; type: cell-based; conditions: for Log CFU/g of K. marxianus: nisin 0.00 ppm, cottage cheese, 4-7° C.
Procedure: (§1) This example describes the antifungal activity of low natamycin concentration (2.5 and 5 ppm) in cottage cheese, in presence of nisin. Cottage cheese was prepared as described above. After adding the dressing to the dry curd, the cottage cheese was inoculated with yeasts and fungal cells, Kluyveromyces marxianus CBS 1557 and Penicillium roqueforti CBS 304.97, respectively. Following the artificial contamination, natamycin and/or nisin was added to the cottage cheese at two different concentrations, 2.5 and 5 ppm for natamycin and 1.25 and 2.50 ppm for nisin. The antifungal activity of natamycin against the yeast and the mould cells was evaluated after 3 and 6 weeks of incubation at 4° C. through the enumeration of the viable cells in the inoculated samples, in presence or not of preservatives. The number of viable yeast of fungal cells was also determined in a negative sample, non inoculated cottage cheese without preservatives and in a positive control, sample artificially contaminated with yeast and fungal cells without preservative.

[3] = system: Penicillium roqueforti CBS 304.97; assay: as above; type: cell-based; conditions: for Log spores/g of P. roqueforti: nisin 0.00 ppm, cottage cheese, 4-7° C.
Procedure: as §1

Listeria innocua LM35 = assay: Antibacterial activity in inoculated cottage cheese, viable cell enumeration; type: cell-based; conditions: for Log CFU/g of L. innocua: nisin 0.00 ppm, cottage cheese, 4-7° C.
Procedure: This example describes the antibacterial activity of nisin (1.25 and 2.5 ppm) in cottage cheese, in presence of low natamycin concentration. Cottage cheese was prepared as described above. After adding the dressing to the dry curd, the cottage cheese was inoculated with yeasts, fungal cells and cells of Listeria innocua LM35. Following the artificial contamination, the cottage cheese was added with two nisin concentrations 1.25 and 2.5 ppm and/or in combination with natamycin at the concentration 2.5 or 5 ppm. The antibacterial activity of nisin against L. innocua was evaluated after 3 and 6 weeks of incubation at 4° C. through the enumeration of the viable cells in the inoculated samples, in presence or not of preservatives. The number of viable bacterial cells was also determined in a negative sample, non inoculated cottage cheese without preservatives and in a positive control, sample artificially contaminated with bacteria.

Gram positive bacteria = assay: Outgrowth of Gram positive bacteria at the surface of food products; type: cell-based; conditions: applied at the surface of product, 0.0001 and 1 ppm nisin
[4] = natamycin at 2.5 or 5 ppm in cottage cheese, up to 6 weeks

Stability of dissolved natamycin in water-containing product [1]: stable
Stability of natamycin in cottage cheese [1]: stable
Remaining percentage of natamycin ([1]; 0 h): 100%
Remaining percentage of natamycin, Average ([1]; 0 h): 100%
Remaining percentage of natamycin, Average ([1]; 504 h): 98%
Remaining percentage of natamycin, Average ([1]; 1008 h): 92%
Molecule: C[C@@H]1C/C=C/C=C/C=C/C=C/[C@H](O[C@@H]2O[C@H](C)[C@@H](O)[C@H](N)[C@@H]2O)C[C@@H]2O[C@](O)(C[C@@H](O)C[C@H]3O[C@@H]3/C=C/C(=O)O1)C[C@H](O)[C@H]2C(=O)O [natamycin]
Effectiveness against yeast and mould (yeast and mould; applied at the surface of product, 0.01 to 10 ppm natamycin): extremely effective
Effectiveness against yeast and mould (yeast and mould; introduced into foodstuffs at concentrations whereby almost no crystal or solid form is present, ranging from 120 ppm based on water content): extremely effective
MIC (Minimal Inhibition Concentration) (most food born fungi): less than 10 ppm
Log CFU/g of K. marxianus ([2]; natamycin 2.50 ppm, 0 week): 1.70 Log CFU/g
Log CFU/g of K. marxianus ([2]; natamycin 2.50 ppm, 3 weeks): 1.70 Log CFU/g
Log CFU/g of K. marxianus ([2]; natamycin 2.50 ppm, 6 weeks): <1.00 Log CFU/g
Log CFU/g of K. marxianus ([2]; natamycin 5.00 ppm, 0 week): 1.30 Log CFU/g
Log CFU/g of K. marxianus ([2]; natamycin 5.00 ppm, 3 weeks): <1.00 Log CFU/g
Log CFU/g of K. marxianus ([2]; natamycin 5.00 ppm, 6 weeks): <1.00 Log CFU/g
Prevention of growth of K. marxianus [2, 4]: effective in preventing the growth
Log spores/g of P. roqueforti ([3]; natamycin 2.50 ppm, 0 week): 1.70 Log spores/g
Log spores/g of P. roqueforti ([3]; natamycin 2.50 ppm, 3 weeks): 1.70 Log spores/g
Log spores/g of P. roqueforti ([3]; natamycin 2.50 ppm, 6 weeks): <1.00 Log spores/g
Log spores/g of P. roqueforti ([3]; natamycin 5.00 ppm, 0 week): 1.60 Log spores/g
Log spores/g of P. roqueforti ([3]; natamycin 5.00 ppm, 3 weeks): <1.00 Log spores/g
Log spores/g of P. roqueforti ([3]; natamycin 5.00 ppm, 6 weeks): <1.00 Log spores/g
Prevention of growth of P. roqueforti [3, 4]: effective in preventing the growth
Log CFU/g of L. innocua (Listeria innocua LM35; natamycin 2.50 ppm, 0 week): 1.90 Log CFU/g
Log CFU/g of L. innocua (Listeria innocua LM35; natamycin 2.50 ppm, 3 weeks): 2.50 Log CFU/g
Log CFU/g of L. innocua (Listeria innocua LM35; natamycin 2.50 ppm, 6 weeks): 4.50 Log CFU/g
Log CFU/g of L. innocua (Listeria innocua LM35; natamycin 5.00 ppm, 0 week): 1.90 Log CFU/g
Log CFU/g of L. innocua (Listeria innocua LM35; natamycin 5.00 ppm, 3 weeks): 1.90 Log CFU/g
Log CFU/g of L. innocua (Listeria innocua LM35; natamycin 5.00 ppm, 6 weeks): 4.70 Log CFU/g

Molecule: nisin
Effectiveness against Gram positive bacteria (Gram positive bacteria): extremely effective
Inhibition of growth of L. innocua (Listeria innocua LM35; nisin 1.25 and 2.5 ppm in cottage cheese, in presence or not of natamycin): inhibited the growth

Reference: US8574645B2, “Antimicrobial composition” (DSM IP Assets B.V., priority 2004, dated 2013)
